{
  "source": "paper PMC7057177",
  "about": "(Journal of medicinal chemistry, 2019)",
  "key": {"menin protein": {"target": "T1, menin protein (Homo sapiens, UniProt O00255)", "T1 sequence (O00255 1-610)": "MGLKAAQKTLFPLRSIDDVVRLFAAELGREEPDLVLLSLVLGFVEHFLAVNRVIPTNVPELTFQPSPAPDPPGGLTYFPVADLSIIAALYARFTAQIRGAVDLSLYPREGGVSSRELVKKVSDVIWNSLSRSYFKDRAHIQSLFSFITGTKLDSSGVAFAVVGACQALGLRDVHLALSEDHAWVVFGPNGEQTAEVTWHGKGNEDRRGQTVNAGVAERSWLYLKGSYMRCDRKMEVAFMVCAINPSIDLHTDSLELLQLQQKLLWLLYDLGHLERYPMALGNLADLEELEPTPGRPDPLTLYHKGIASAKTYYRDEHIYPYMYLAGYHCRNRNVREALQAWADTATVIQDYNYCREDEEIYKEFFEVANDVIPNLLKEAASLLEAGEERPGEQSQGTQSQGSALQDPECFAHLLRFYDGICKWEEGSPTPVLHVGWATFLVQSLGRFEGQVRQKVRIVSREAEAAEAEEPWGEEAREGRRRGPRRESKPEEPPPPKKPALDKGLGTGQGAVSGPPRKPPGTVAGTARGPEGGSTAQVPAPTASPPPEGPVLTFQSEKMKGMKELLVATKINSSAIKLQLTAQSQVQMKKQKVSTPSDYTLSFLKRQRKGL", "test": "Fluorescence polarization", "conditions": "for Times more potent than MIV-6 in binding to menin: FP binding assay"}, "MV4;11 cell line": {"tested_on": "MV4;11 cell line", "test": "Cell growth inhibition assay", "assay_type": "cell-based, human"}, "Solubility comparison": {"test": "Solubility comparison", "assay_type": "physicochemical", "conditions": "compared with 20"}},
  "data": [
    {"compound": "CC(=O)O[C@H]1CCC[C@@H]1[C@](C#N)(c1ccccc1)C1CCN(CC2CN(c3ccc(C#N)cc3)C2)CC1", "note": "(mixture of isomers) [Compound 35, rac-(1S,2R)-2-((S)-Cyano(1-((1-(4-cyanophenyl)azetidin-3-yl)methyl)piperidin-4-yl)(phenyl)methyl)cyclopentyl acetate]", "values": [
      {"measurement": "Times more potent than 31 in binding to menin", "setting": "menin protein", "value": 80, "unit": "times"}
    ]},
    {"compound": "CCCC(=O)O[C@H]1CCC[C@@H]1[C@](C#N)(c1ccccc1)C1CCN(CC2CN(c3ccc(C#N)cc3)C2)CC1", "note": "(mixture of isomers) [Compound 38, rac-(1S,2R)-2-((S)-Cyano(1-((1-(4-cyanophenyl)azetidin-3-yl)methyl)piperidin-4-yl)-(phenyl)methyl)cyclopentyl butyrate]", "values": [
      {"measurement": "Fold loss in binding affinity to menin relative to 37", "setting": "menin protein", "value": 30, "unit": "fold"}
    ]},
    {"compound": "CNC(=O)O[C@H]1CCC[C@@H]1[C@](C#N)(c1ccccc1)C1CCN(CC2CN(c3ccc(C#N)cc3)C2)CC1", "note": "(mixture of isomers) [Compound 39, rac-(1S,2R)-2-((S)-Cyano(1-((1-(4-cyanophenyl)azetidin-3-yl)methyl)piperidin-4-yl)-(phenyl)methyl)cyclopentyl methylcarbamate]", "values": [
      {"measurement": "Factor of enhancement of cellular activity in MV4;11 relative to 31", "setting": "MV4;11 cell line", "value": "> 50"},
      {"measurement": "Times more potent than 31 in binding to menin", "setting": "menin protein", "value": "> 100", "unit": "times"}
    ]},
    {"compound": "CNC(=O)O[C@H]1CCC[C@@H]1[C@]1(C2CCN(CC3CN(c4ccc(S(=O)(=O)c5ccncc5)cc4)C3)CC2)CN(C)Cc2ccccc21", "note": "(mixture of isomers) [Compound 42, rac-(1S,2R)-2-((S)-2-Methyl-4-(1-((1-(4-(pyridin-4-ylsulfonyl)phenyl)azetidin-3-yl)methyl)piperidin-4-yl)-1,2,3,4-tetrahydroisoquinolin-4-yl)cyclopentyl methylcarbamate]", "values": [
      {"measurement": "Times more potent than MIV-6 in cell growth inhibition", "setting": "MV4;11 cell line; MV4;11 (M-89: MV4;11 and MOLM-13)", "value": "> 100", "unit": "times"}
    ]},
    {"compound": "N#Cc1ccc(N2CC(CN3CCC(C(C#N)(c4ccccc4)C4CCCC4)CC3)C2)cc1", "note": "(racemic) [Compound 31, rac-4-(3-((4-(cyano(cyclopentyl)(phenyl)methyl)piperidin-1-yl)methyl)azetidin-1-yl)benzonitrile]", "values": [
      {"measurement": "Times weaker than MIV-6 in binding to menin", "setting": "menin protein", "value": 16, "unit": "times"}
    ]},
    {"compound": "N#Cc1ccc(OCCCN2CCC(C3(C4CCCC4)NCCc4ccccc43)CC2)cc1", "note": "(stereo not drawn) [Compound 6, 4-(3-(4-(1-Cyclopentyl-1,2,3,4-tetrahydroisoquinolin-1-yl)piperidin-1-yl)propoxy)-benzonitrile]", "values": [
      {"measurement": "Times more potent than MIV-6 in binding to menin", "setting": "menin protein", "value": "2-3 times"}
    ]},
    {"compound": "N#Cc1ccc(N2CCC(N3CCC(C4(C5CCCC5)NCCc5ccccc54)CC3)CC2)cc1", "note": "(stereo not drawn) [Compound 9, 4-(4-(1-Cyclopentyl-1,2,3,4-tetrahydroisoquinolin-1-yl)-[1,4'-bipiperidin]-1'-yl)benzonitrile]", "values": [
      {"measurement": "Times less potent than 6 in binding to menin", "setting": "menin protein", "value": "approximately 10 times"}
    ]},
    {"compound": "N#Cc1ccc(N2CCCC(CN3CCC(C4(C5CCCC5)NCCc5ccccc54)CC3)C2)cc1", "note": "(stereo not drawn) [Compound 10, 4-(3-((4-(1-Cyclopentyl-1,2,3,4-tetrahydroisoquinolin-1-yl)piperidin-1-yl)methyl)piperidin-1-yl)benzonitrile]", "values": [
      {"measurement": "Times less potent than 6 in binding to menin", "setting": "menin protein", "value": "~100", "unit": "times"}
    ]},
    {"compound": "N#Cc1ccc(N2CC(CN3CCC(C4(C5CCCC5)NCCc5ccccc54)CC3)C2)cc1", "note": "(stereo not drawn) [Compound 12, 4-(3-((4-(1-Cyclopentyl-1,2,3,4-tetrahydroisoquinolin-1-yl)piperidin-1-yl)methyl)azetidin-1-yl)benzonitrile]", "values": [
      {"measurement": "Times more potent than 6 in binding to menin", "setting": "menin protein", "value": 2, "unit": "times"},
      {"measurement": "Times more potent than MIV-6 in binding to menin", "setting": "menin protein", "value": 5, "unit": "times"}
    ]},
    {"compound": "CS(=O)(=O)c1ccc(N2CC(CN3CCC(C4(C5CCCC5)NCCc5ccccc54)CC3)C2)cc1", "note": "(stereo not drawn) [Compound 13, 1-Cyclopentyl-1-(1-((1-(4-(methylsulfonyl)phenyl)azetidin-3-yl)methyl)piperidin-4-yl)-1,2,3,4-tetrahydroisoquinoline]", "values": [
      {"measurement": "Times less potent than 12 in binding to menin", "setting": "menin protein", "value": 4, "unit": "times"}
    ]},
    {"compound": "CC(C)S(=O)(=O)c1ccc(N2CC(CN3CCC(C4(C5CCCC5)NCCc5ccccc54)CC3)C2)cc1", "note": "(stereo not drawn) [Compound 15, 1-Cyclopentyl-1-(1-((1-(4-(isopropylsulfonyl)phenyl)azetidin-3-yl)methyl)piperidin-4-yl)-1,2,3,4-tetrahydroisoquinoline]", "values": [
      {"measurement": "Times less potent than 14 in binding to menin", "setting": "menin protein", "value": 2, "unit": "times"},
      {"measurement": "Times more potent than 13 in binding to menin", "setting": "menin protein", "value": 2, "unit": "times"}
    ]},
    {"compound": "O=S(=O)(c1ccc(N2CC(CN3CCC(C4(C5CCCC5)NCCc5ccccc54)CC3)C2)cc1)C1CC1", "note": "(stereo not drawn) [Compound 16, 1-Cyclopentyl-1-(1-((1-(4-(cyclopropylsulfonyl)phenyl)azetidin-3-yl)methyl)piperidin-4-yl)-1,2,3,4-tetrahydroisoquinoline]", "values": [
      {"measurement": "Times more potent than 15 in binding to menin", "setting": "menin protein", "value": "2-3 times"}
    ]},
    {"compound": "O=S(=O)(c1ccncc1)c1ccc(N2CC(CN3CCC(C4(C5CCCC5)NCCc5ccccc54)CC3)C2)cc1", "note": "(stereo not drawn) [Compound 21, 1-Cyclopentyl-1-(1-((1-(4-(pyridin-4-ylsulfonyl)phenyl)azetidin-3-yl)methyl)piperidin-4-yl)-1,2,3,4-tetrahydroisoquinoline]", "values": [
      {"measurement": "Relative solubility", "setting": "Solubility comparison", "value": "more soluble than 20"}
    ]},
    {"compound": "O=S(=O)(c1ccncc1)c1ccc(N2CC(CN3CCC(C4(C5CCCC5)CNCc5ccccc54)CC3)C2)cc1", "note": "(stereo not drawn) [Compound 22, 4-Cyclopentyl-4-(1-((1-(4-(pyridin-4-ylsulfonyl)phenyl)azetidin-3-yl)methyl)piperidin-4-yl)-1,2,3,4-tetrahydroisoquinoline]", "values": [
      {"measurement": "Times more potent than 21 in binding to menin", "setting": "menin protein", "value": "2-3 times"}
    ]},
    {"compound": "CN1Cc2ccccc2C(C2CCCC2)(C2CCN(CC3CN(c4ccc(S(=O)(=O)c5ccncc5)cc4)C3)CC2)C1", "note": "(stereo not drawn) [Compound 23, 4-Cyclopentyl-2-methyl-4-(1-((1-(4-(pyridin-4-ylsulfonyl)phenyl)azetidin-3-yl)methyl)piperidin-4-yl)-1,2,3,4-tetrahydroisoquinoline]", "values": [
      {"measurement": "IC50", "setting": "MV4;11 cell line; Homo sapiens, MV4-11, read-out: IC50 cell growth inhibition MV4;11", "value": "400 to 1000", "unit": "nM"}
    ]}
  ]
}
